Source: PMC10922478 (Environmental research, 2023)

Assays:
[1] = format: in vivo; details: human urine after limonene inhalation
[2] = Stable isotope tracing in mouse urine after i.p. limonene or limonene-d5; details: after limonene / limonene-d5 66.8 mg/kg i.p.; overnight urine
[3] = ref Falk-Filipsson et al., 1993; cited from earlier work

Structure (SMILES)	Observed Tmax ([1]; creatinine-normalized peak response)	Elimination t1/2 ([1]; pseudo one-compartment model)	Ka (first-order urinary generation rate constant) ([1]; pseudo one-compartment model)	Ke (first-order urinary elimination rate constant) ([1]; pseudo one-compartment model)	Detection in mouse urine [2]	Half-life in blood (t1/2α) [3]
C=C(C)C1CCC(C(=O)O)CC1 (stereo not drawn) [LM1, DHPA]	1 h	1.01 ± 0.40 h	0.93 ± 0.37 h⁻¹	0.68 ± 0.27 h⁻¹	absent	–
C=C(C)[C@H]1CC=C(C)CC1 [Limonene]	–	–	–	–	–	~ 3 min
